Measured values taken from patent publication US20140271667A1, “Methods and Compositions for Neoadjuvant Therapy” (The Wistar Institute of Anatomy and Biology, priority 2013, published 2014).

How the values were obtained:
PC3 cells [1] = test: Cell death by Trypan blue exclusion; type: cell-based; settings: vs vehicle, Gamitrinib 5 μM, CCCP 12.5 μM, 2-DG 25 mM
Procedure: (§1) Tumor cells were plated onto 96-well plates at 3.7×10^3/well and treated with vehicle or Gamitrinib (5 μM). After 24 h, cell viability was assessed with a 3 (4,5-dimethyl-thyazoyl-2-yl)2,5 diphenyltetrazolium bromide (MTT) colorimetric assay (24), or, alternatively, by Trypan blue exclusion and light microscopy. Data were background-subtracted relative to vehicle-treated cultures. In some experiments, tumor cell proliferation was assessed by direct cell counting and light microscopy.

PC3 cells [2] = test: Matrigel-coated transwell cell invasion; type: cell-based, human; settings: Gamitrinib 5 μM, 17-AAG 5 μM, CCCP 12.5 μM, 2-DG 25 mM, 16 h
Procedure: (§2) Various tumor cell types were treated as indicated in each experiment, suspended in 0.1% BSA/DMEM and seeded (1.6−3.2×10^3 cells/mm2, depending on the cell type) in the upper compartment of […] pore diameter BD transwells (BD). NIH3T3 conditioned medium was placed in the lower compartment as a chemoattractant. After 6-18 h incubations at 37° C., the transwell membranes were recovered and cells on the upper side (non-migratory) were wiped off the surface. Cells on the lower side of the membrane were fixed in methanol, rinsed in water and mounted on glass slides with Vectashield medium containing DAPI (Vector Laboratories). Migrated cells on each membrane were counted by fluorescence microscopy in 5 different fields. For cell invasion assays, transwell membranes were coated with Matrigel and processed as described above.

PC3 cells [3] = test: Transwell cell migration; type: cell-based, human; settings: Gamitrinib 5 μM, 17-AAG 5 μM, CCCP 12.5 μM, 2-DG 25 mM, rapamycin 0.1 μM, 6 h
Procedure: as §2

PC3 cells [4] = test: Cell proliferation by direct cell counting; type: cell-based, human; settings: vs vehicle, Gamitrinib 5 μM, CCCP 12.5 μM, 2-DG 25 mM
Procedure: as §1

AMPK = test: Western blotting, AMPK and ACC phosphorylation; type: cell-based, human; settings: PC3; Gamitrinib 5 μM time course, metformin 5 mM 6 h, 17-AAG 5 μM time course
Procedure: (§3) Protein lysates were prepared in RIPA buffer containing 150 mM NaCl, 1.0% Triton X-100, 0.5% sodium deoxycholate, 0.1% SDS, 50 mM Tris, pH 8.0, in the presence of EDTA-free protease inhibitor cocktail (Roche) and phosphatase inhibitor cocktail 2 and 3 (Sigma Aldrich). Equal amounts of protein lysates were separated by SDS gel electrophoresis, transferred to PVDF membranes and incubated with primary antibodies of various specificities. Protein bands were detected by chemiluminescence, as described (21).

Raptor = test: Western blotting, Raptor phosphorylation; type: cell-based, human; settings: PC3; Gamitrinib 5 μM, metformin 5 mM 6 h, 17-AAG 5 μM
Procedure: as §3

ULK1 = test: Western blotting, ULK1 phosphorylation and level; type: cell-based, human; settings: for ULK1 phosphorylation on Ser555: Gamitrinib 5 μM (within 1-2 h); for ULK1 phosphorylation on Ser555 / ULK1 phosphorylation on Ser757: metformin 5 mM 6 h, 17-AAG 5 μM; for ULK1 phosphorylation on Ser757: Gamitrinib 5 μM
Procedure: as §3

[5] = test system: Focal Adhesion Kinase (FAK); test: Western blotting, FAK phosphorylation; type: cell-based, human; settings: tumor cells (PC3); Gamitrinib 5 μM, CCCP 12.5 μM, rapamycin 0.1 μM
Procedure: as §3

4EBP1 = test: Western blotting, 4EBP1 phosphorylation; type: cell-based, human; settings: PC3; rapamycin 0.1 μM
Procedure: as §3

With `O=CC[C@@H](O)[C@H](O)[C@H](O)CO` [2-DG, 2-deoxy-D-glucose] the “cell death by Trypan blue exclusion” value (PC3 cells [1]) was “did not affect”, the tumor cell invasion (PC3 cells [2]) was “suppressed” and the tumor cell migration (PC3 cells [3]) was “suppressed tumor cell migration”. For the same compound, the tumor cell proliferation (PC3 cells [4]) was “did not affect cell proliferation”.

`C=CCNC1=C2C[C@@H](C)C[C@H](OC)[C@H](O)[C@@H](C)/C=C(\C)[C@H](OC(N)=O)[C@@H](OC)/C=C\C=C(/C)C(=O)NC(=CC1=O)C2=O` [17-AAG, 17-allylamino demethoxygeldanamycin] was tested, and the “AMPK and ACC phosphorylation” value (AMPK) was “did not affect AMPK or ACC phosphorylation”, the “Raptor phosphorylation on Ser792” value (Raptor) was “remained unphosphorylated” and the tumor cell invasion (PC3 cells [2]) was “did not affect tumor cell migration or invasion”. The tumor cell migration (PC3 cells [3]) was “did not affect tumor cell migration or invasion”, the “ULK1 level after longer exposure” value (ULK1; 24-h exposure of tumor cells, data not shown) was “caused ULK1 degradation” and the “ULK1 phosphorylation on Ser555” value (ULK1; PC3) was “equally reduced”. The “ULK1 phosphorylation on Ser757” value (ULK1; PC3) was “equally reduced” and the “total level of ULK1” value (ULK1; PC3, time points of the Western blot experiment) was “not affected”.

`N#CC(C#N)=NNc1cccc(Cl)c1` [CCCP, carbonyl cyanide 3-chlorophenylhydrazone] was tested, and the “cell death by Trypan blue exclusion” value (PC3 cells [1]) was “did not affect”, the “FAK phosphorylation on Tyr397 and Tyr925” value [5] was “abolished FAK phosphorylation” and the tumor cell invasion (PC3 cells [2]) was “suppressed”. For the same compound, the tumor cell migration (PC3 cells [3]) was “suppressed tumor cell migration” and the tumor cell proliferation (PC3 cells [4]) was “did not affect cell proliferation”.

In the case of `CN(C)C(=N)N=C(N)N` [metformin], the “AMPK and ACC phosphorylation” value (AMPK) was “activation of AMPK and ACC”, the “Raptor phosphorylation on Ser792” value (Raptor) was “phosphorylation of Raptor on Ser792” and the “ULK1 phosphorylation on Ser555” value (ULK1; PC3) was “increased ULK1 phosphorylation on Ser555”. The “ULK1 phosphorylation on Ser757” value (ULK1; PC3) was “decreased phosphorylation of ULK1 on Ser757”.

`CO[C@H]1C[C@@H]2CC[C@@H](C)[C@@](O)(O2)C(=O)C(=O)N2CCCC[C@H]2C(=O)O[C@H]([C@H](C)C[C@@H]2CC[C@@H](O)[C@H](OC)C2)CC(=O)[C@H](C)/C=C(\C)[C@@H](O)[C@@H](OC)C(=O)[C@H](C)C[C@H](C)/C=C/C=C/C=C/1C` [rapamycin, Rapamycin] was tested, and the “FAK phosphorylation on Tyr397 and Tyr925” value [5] was “no effect”, the tumor cell migration (PC3 cells [3]) was “no effect” and the 4EBP1 phosphorylation (4EBP1) was “suppressed 4EBP1 phosphorylation”.
